Legend:
Assay type in all cases: in vivo
[1] = test system: barnyardgrass (Echinochloa crus-galli); test: Test G Pre-Emergence Protocol; conditions: Echinochloa crus-galli, pre-emergence, 312 h, evaluated after 13 days; for pest or weed control at 15.625 g/ha: 15.625 g ai/ha, read-out: Barnyard grass damage rating (100=total damage to plant; 0=no damage to plant); for pest or weed control at 62.5 g/ha: 62.5 g ai/ha, 100=total damage to plant, 0=no damage to plant, read-out: plant damage rating, Barnyardgrass; for pest or weed control at 250 g/ha: 250 g ai/ha, read-out: Barnyardgrass damage rating (100=total damage to plant; 0=no damage to plant)
Method in brief: (§1)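 Herbicidal effect was rated 13 days post-application on a scale where 100 equals total damage. Spraying took place the day after sowing, using 15.625, 62.5 or 250 g/ha of compound in a 50:50 acetone/water solution with 0.5% Tween 20.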

corn (Zea mays) [2] = test: Test G Pre-Emergence Protocol; conditions: Zea mays, pre-emergence, 312 h, evaluated after 13 days; for plant injury at 15.625 g/ha: 15.625 g ai/ha; for plant injury at 15.625 g/ha / plant injury at 250 g/ha: read-out: Corn damage rating (100=total damage to plant; 0=no damage to plant); for plant injury at 62.5 g/ha: 62.5 g ai/ha, 100=total damage to plant, 0=no damage to plant, read-out: plant damage rating, Corn; for plant injury at 250 g/ha: 250 g ai/ha
Method in brief: as §1

[3] = test system: giant foxtail (Setaria faberi); test: Test G Pre-Emergence Protocol; conditions: Setaria faberi, pre-emergence, 312 h, evaluated after 13 days; for pest or weed control at 15.625 g/ha: 15.625 g ai/ha; for pest or weed control at 15.625 g/ha / pest or weed control at 250 g/ha: read-out: Foxtail, Giant damage rating (100=total damage to plant; 0=no damage to plant); for pest or weed control at 62.5 g/ha: 62.5 g ai/ha, 100=total damage to plant, 0=no damage to plant, read-out: plant damage rating, Foxtail, Giant; for pest or weed control at 250 g/ha: 250 g ai/ha
Method in brief: as §1

[4] = test system: ivy-leaved morning glory (Ipomoea hederacea); test: Test G Pre-Emergence Protocol; conditions: Ipomoea, pre-emergence, 312 h, evaluated after 13 days; for pest or weed control at 15.625 g/ha: 15.625 g ai/ha, read-out: Morning-glory, Ivy-leaved damage rating (100=total damage to plant; 0=no damage to plant); for pest or weed control at 62.5 g/ha: 62.5 g ai/ha, 100=total damage to plant, 0=no damage to plant, read-out: plant damage rating, Morningglory, Ivy-leaved; for pest or weed control at 250 g/ha: 250 g ai/ha, read-out: Morningglory, Ivy-leaved damage rating (100=total damage to plant; 0=no damage to plant)
Method in brief: as §1

[5] = test system: redroot pigweed (Amaranthus retroflexus); test: Test G Pre-Emergence Protocol; conditions: Amaranthus retroflexus, pre-emergence, 312 h, evaluated after 13 days; for pest or weed control at 15.625 g/ha: 15.625 g ai/ha; for pest or weed control at 15.625 g/ha / pest or weed control at 250 g/ha: read-out: Pigweed, Redroot damage rating (100=total damage to plant; 0=no damage to plant); for pest or weed control at 62.5 g/ha: 62.5 g ai/ha, 100=total damage to plant, 0=no damage to plant, read-out: plant damage rating, Pigweed, Redroot; for pest or weed control at 250 g/ha: 250 g ai/ha
Method in brief: as §1

[6] = test system: velvetleaf (Abutilon theophrasti); test: Test G Pre-Emergence Protocol; conditions: Abutilon theophrasti, pre-emergence, 312 h, evaluated after 13 days; for pest or weed control at 15.625 g/ha: 15.625 g ai/ha; for pest or weed control at 15.625 g/ha / pest or weed control at 250 g/ha: read-out: Velvetleaf damage rating (100=total damage to plant; 0=no damage to plant); for pest or weed control at 62.5 g/ha: 62.5 g ai/ha, 100=total damage to plant, 0=no damage to plant, read-out: plant damage rating, Velvetleaf; for pest or weed control at 250 g/ha: 250 g ai/ha
Method in brief: as §1

[7] = test system: barnyardgrass (Echinochloa crus-galli); test: Test G Post-Emergence Protocol; conditions: Echinochloa crus-galli, post-emergence, 312 h; for pest or weed control at 15.625 g/ha: 15.625 g ai/ha, evaluated after 13 days (100=total damage to plant; 0=no damage to plant), read-out: Barnyardgrass damage rating; for pest or weed control at 62.5 g/ha: 62.5 g ai/ha, read-out: Barnyardgrass damage rating (100=total damage to plant; 0=no damage to plant); for pest or weed control at 62.5 g/ha / pest or weed control at 250 g/ha: evaluated after 13 days; for pest or weed control at 250 g/ha: 250 g ai/ha, read-out: damage to plant, Barnyardgrass (100=total damage to plant; 0=no damage to plant)
Method in brief: (§2)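 Pot-grown seedlings, 8 days old, raised in a glasshouse at 24/16 °C day/night with 14 h light and 65% humidity, were sprayed post-emergence with test compound in acetone/water (50:50) plus 0.5% Tween 20 at 15.625, 62.5 or 250 g/ha. Damage was scored visually 13 days later on a 0–100 scale (100 = total damage).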

corn (Zea mays) [8] = test: Test G Post-Emergence Protocol; conditions: Zea mays, post-emergence, 312 h; for plant injury at 15.625 g/ha: 15.625 g ai/ha, evaluated after 13 days (100=total damage to plant; 0=no damage to plant), read-out: Corn damage rating; for plant injury at 62.5 g/ha: 62.5 g ai/ha, read-out: Corn damage rating (100=total damage to plant; 0=no damage to plant); for plant injury at 62.5 g/ha / plant injury at 250 g/ha: evaluated after 13 days; for plant injury at 250 g/ha: 250 g ai/ha, read-out: damage to plant, Corn (100=total damage to plant; 0=no damage to plant)
Method in brief: as §2

[9] = test system: giant foxtail (Setaria faberi); test: Test G Post-Emergence Protocol; conditions: Setaria faberi, post-emergence, 312 h; for pest or weed control at 15.625 g/ha: 15.625 g ai/ha, evaluated after 13 days (100=total damage to plant; 0=no damage to plant), read-out: Foxtail, Giant damage rating; for pest or weed control at 62.5 g/ha: 62.5 g ai/ha, read-out: Foxtail, Giant damage rating (100=total damage to plant; 0=no damage to plant); for pest or weed control at 62.5 g/ha / pest or weed control at 250 g/ha: evaluated after 13 days; for pest or weed control at 250 g/ha: 250 g ai/ha, read-out: damage to plant, Foxtail, Giant (100=total damage to plant; 0=no damage to plant)
Method in brief: as §2

[10] = test system: ivy-leaved morning glory (Ipomoea hederacea); test: Test G Post-Emergence Protocol; conditions: Ipomoea, post-emergence, 312 h; for pest or weed control at 15.625 g/ha: 15.625 g ai/ha, evaluated after 13 days (100=total damage to plant; 0=no damage to plant), read-out: Morningglory, Ivy-leaved damage rating; for pest or weed control at 62.5 g/ha: 62.5 g ai/ha, read-out: Morningglory, Ivy-leaved damage rating (100=total damage to plant; 0=no damage to plant); for pest or weed control at 62.5 g/ha / pest or weed control at 250 g/ha: evaluated after 13 days; for pest or weed control at 250 g/ha: 250 g ai/ha, read-out: damage to plant, Morningglory, Ivy-leaved (100=total damage to plant; 0=no damage to plant)
Method in brief: as §2

[11] = test system: redroot pigweed (Amaranthus retroflexus); test: Test G Post-Emergence Protocol; conditions: Amaranthus retroflexus, post-emergence, 312 h; for pest or weed control at 15.625 g/ha: 15.625 g ai/ha, evaluated after 13 days (100=total damage to plant; 0=no damage to plant), read-out: Pigweed, Redroot damage rating; for pest or weed control at 62.5 g/ha: 62.5 g ai/ha, read-out: Pigweed, Redroot damage rating (100=total damage to plant; 0=no damage to plant); for pest or weed control at 62.5 g/ha / pest or weed control at 250 g/ha: evaluated after 13 days; for pest or weed control at 250 g/ha: 250 g ai/ha, read-out: damage to plant, Pigweed, Redroot (100=total damage to plant; 0=no damage to plant)
Method in brief: as §2

[12] = test system: velvetleaf (Abutilon theophrasti); test: Test G Post-Emergence Protocol; conditions: Abutilon theophrasti, post-emergence, 312 h; for pest or weed control at 15.625 g/ha: 15.625 g ai/ha, evaluated after 13 days (100=total damage to plant; 0=no damage to plant), read-out: Velvetleaf damage rating; for pest or weed control at 62.5 g/ha: 62.5 g ai/ha, read-out: Velvetleaf damage rating (100=total damage to plant; 0=no damage to plant); for pest or weed control at 62.5 g/ha / pest or weed control at 250 g/ha: evaluated after 13 days; for pest or weed control at 250 g/ha: 250 g ai/ha, read-out: damage to plant, Velvetleaf (100=total damage to plant; 0=no damage to plant)
Method in brief: as §2

Structure (SMILES): CN1C[C@H](c2cccc3c2OC(F)(F)O3)[C@@H](C(=O)Nc2ccccc2F)C1=O (racemic) [Compound 1465]
- pest or weed control at 15.625 g/ha [1]: 0%
- pest or weed control at 62.5 g/ha [1]: 20%
- pest or weed control at 250 g/ha [1]: 70%
- plant injury at 15.625 g/ha (corn (Zea mays) [2]): 0%
- plant injury at 62.5 g/ha (corn (Zea mays) [2]): 0%
- plant injury at 250 g/ha (corn (Zea mays) [2]): 0%
- pest or weed control at 15.625 g/ha [3]: 30%
- pest or weed control at 62.5 g/ha [3]: 70%
- pest or weed control at 250 g/ha [3]: 90%
- pest or weed control at 15.625 g/ha [4]: 0%
- pest or weed control at 62.5 g/ha [4]: 0%
- pest or weed control at 250 g/ha [4]: 0%
- pest or weed control at 15.625 g/ha [5]: 0%
- pest or weed control at 62.5 g/ha [5]: 0%
- pest or weed control at 250 g/ha [5]: 0%
- pest or weed control at 15.625 g/ha [6]: 0%
- pest or weed control at 62.5 g/ha [6]: 0%
- pest or weed control at 250 g/ha [6]: 0%
- pest or weed control at 15.625 g/ha [7]: 0%
- pest or weed control at 62.5 g/ha [7]: 10%
- pest or weed control at 250 g/ha [7]: 20%
- plant injury at 15.625 g/ha (corn (Zea mays) [8]): 10%
- plant injury at 62.5 g/ha (corn (Zea mays) [8]): 10%
- plant injury at 250 g/ha (corn (Zea mays) [8]): 10%
- pest or weed control at 15.625 g/ha [9]: 0%
- pest or weed control at 62.5 g/ha [9]: 60%
- pest or weed control at 250 g/ha [9]: 70%
- pest or weed control at 15.625 g/ha [10]: 0%
- pest or weed control at 62.5 g/ha [10]: 0%
- pest or weed control at 250 g/ha [10]: 20%
- pest or weed control at 15.625 g/ha [11]: 10%
- pest or weed control at 62.5 g/ha [11]: 0%
- pest or weed control at 250 g/ha [11]: 0%
- pest or weed control at 15.625 g/ha [12]: 10%
- pest or weed control at 62.5 g/ha [12]: 0%
- pest or weed control at 250 g/ha [12]: 10%

Structure (SMILES): CN1C[C@H](c2ccc(C(F)(F)F)cc2)[C@@H](C(=O)Nc2cnccc2O)C1=O (racemic) [Compound 1466]
- pest or weed control at 15.625 g/ha [1]: 0%
- pest or weed control at 62.5 g/ha [1]: 0%
- pest or weed control at 250 g/ha [1]: 0%
- plant injury at 15.625 g/ha (corn (Zea mays) [2]): 0%
- plant injury at 62.5 g/ha (corn (Zea mays) [2]): 0%
- plant injury at 250 g/ha (corn (Zea mays) [2]): 0%
- pest or weed control at 15.625 g/ha [3]: 0%
- pest or weed control at 62.5 g/ha [3]: 0%
- pest or weed control at 250 g/ha [3]: 0%
- pest or weed control at 15.625 g/ha [4]: 0%
- pest or weed control at 62.5 g/ha [4]: 0%
- pest or weed control at 250 g/ha [4]: 0%
- pest or weed control at 15.625 g/ha [5]: 0%
- pest or weed control at 62.5 g/ha [5]: 0%
- pest or weed control at 250 g/ha [5]: 0%
- pest or weed control at 15.625 g/ha [6]: 0%
- pest or weed control at 62.5 g/ha [6]: 0%
- pest or weed control at 250 g/ha [6]: 0%
- pest or weed control at 15.625 g/ha [7]: 0%
- pest or weed control at 62.5 g/ha [7]: 0%
- pest or weed control at 250 g/ha [7]: 20%
- plant injury at 15.625 g/ha (corn (Zea mays) [8]): 0%
- plant injury at 62.5 g/ha (corn (Zea mays) [8]): 10%
- plant injury at 250 g/ha (corn (Zea mays) [8]): 20%
- pest or weed control at 15.625 g/ha [9]: 0%
- pest or weed control at 62.5 g/ha [9]: 10%
- pest or weed control at 250 g/ha [9]: 30%
- pest or weed control at 15.625 g/ha [10]: 0%
- pest or weed control at 62.5 g/ha [10]: 10%
- pest or weed control at 250 g/ha [10]: 10%
- pest or weed control at 15.625 g/ha [11]: 10%
- pest or weed control at 62.5 g/ha [11]: 30%
- pest or weed control at 250 g/ha [11]: 80%
- pest or weed control at 15.625 g/ha [12]: 0%
- pest or weed control at 62.5 g/ha [12]: 0%
- pest or weed control at 250 g/ha [12]: 0%

From patent US12077503B2, “Substituted cyclic amides and their use as herbicides” (FMC CORPORATION, priority 2015, dated 2024)
